Like-named read-outs stand apart in the source and are kept apart here.
Biological target: human APJ receptor (Homo sapiens (Human), UniProt P35414)
Test: Intracellular cAMP accumulation assay (APJ hcAMP, HTRF)
Format: cell-based
Conditions: human APJ, read-out: Human APJ cAMP EC50 Potency range
Outline: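 HEK293 cells stably expressing human APJ, 5,000 per well, incubated 30 min at rt with compound, […] and 2 μM forskolin. cAMP measured by HTRF against a cAMP standard curve as inhibition of forskolin-driven production. EC50 from variable-slope sigmoidal fit.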

[1] = intracellular cAMP accumulation

human APJ receptor, sequence (P35414 whole entry): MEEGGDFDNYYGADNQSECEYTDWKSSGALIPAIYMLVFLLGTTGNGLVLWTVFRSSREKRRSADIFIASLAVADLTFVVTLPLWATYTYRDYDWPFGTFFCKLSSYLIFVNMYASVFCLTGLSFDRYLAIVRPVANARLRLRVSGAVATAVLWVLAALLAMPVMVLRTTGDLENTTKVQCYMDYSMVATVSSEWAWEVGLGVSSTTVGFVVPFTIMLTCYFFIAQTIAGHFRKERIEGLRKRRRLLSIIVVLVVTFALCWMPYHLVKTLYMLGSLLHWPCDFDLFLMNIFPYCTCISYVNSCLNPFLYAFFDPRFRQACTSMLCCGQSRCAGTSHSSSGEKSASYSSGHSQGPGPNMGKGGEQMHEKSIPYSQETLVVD

| Compound | EC50 [1] [nM] | EC50 (cAMP accumulation) [nM] |
| --- | --- | --- |
| CC[C@@H](c1ccccc1)n1c(CCC(C)C)nc(=O)c(S(=O)(=O)c2ccc(-c3ccncc3C)cc2)c1O [Example 209, 6-hydroxy-2-(3-methylbutyl)-5-[4-(3-methylpyridin-4-yl)benzenesulfonyl]-1-[(1S)-1-phenylpropyl]-1,4-dihydropyrimidin-4-one] | 0.01 to 10 | – |
| CCCCc1nc(=O)c(S(=O)(=O)c2ccc(-c3ccncc3C)cc2)c(O)n1[C@H](C)c1ccc(OC)cc1 [Example 210, 2-butyl-6-hydroxy-1-[(1R)-1-(4-methoxyphenyl)ethyl]-5-[4-(3-methylpyridin-4-yl)benzenesulfonyl]-1,4-dihydropyrimidin-4-one] | 0.01 to 10 | – |
| CCCCc1nc(=O)c(S(=O)(=O)c2ccc(-c3cncc(F)c3)cc2)c(O)n1[C@@H](CC)c1ccc2c(c1)OCO2 [Example 218, 1-[(1S)-1-(2H-1,3-benzodioxol-5-yl)propyl]-2-butyl-5-[4-(5-fluoropyridin-3-yl)benzenesulfonyl]-6-hydroxy-1,4-dihydropyrimidin-4-one] | – | 0.01 to 10 |
| CCCCc1nc(O)c(S(=O)(=O)c2ccc(Br)cc2)c(=O)n1[C@@H](CC)c1ccc2c(c1)OCO2 [Example 219, 3-[(1S)-1-(2H-1,3-benzodioxol-5-yl)propyl]-5-(4-bromobenzenesulfonyl)-2-butyl-6-hydroxy-3,4-dihydropyrimidin-4-one] | – | 0.01 to 10 |
| CCCCc1nc(=O)c(S(=O)(=O)c2ccc(-c3cncc(F)c3)cc2)c(O)n1[C@H]1CCCc2ccccc21 [Example 222, 2-butyl-5-[4-(5-fluoropyridin-3-yl)benzenesulfonyl]-6-hydroxy-1-[(1S)-1,2,3,4-tetrahydronaphthalen-1-yl]-1,4 dihydropyrimidin-4-one] | – | 0.01 to 10 |
| CCCCc1nc(O)c(S(=O)(=O)c2ccc(Br)cc2)c(=O)n1[C@@H](CC)c1cccc(C#N)c1 [Example 223, 3-[(1S)-1-[5-(4-bromobenzenesulfonyl)-2-butyl-4-hydroxy-6-oxo-1,6-dihydropyrimidin-1-yl]propyl]benzonitrile] | – | 0.01 to 10 |
| CCCCc1nc(=O)c(S(=O)(=O)c2ccc(-c3ccncc3C)cc2)c(O)n1[C@H]1CCCc2ccccc21 [Example 224, 2-butyl-6-hydroxy-5-[4-(3-methylpyridin-4-yl)benzenesulfonyl]-1-[(1S)-1,2,3,4-tetrahydronaphthalen-1-yl]-1,4-dihydropyrimidin-4-one] | – | 0.01 to 10 |
| CCCCc1nc(=O)c(S(=O)(=O)c2ccc(-c3ccncc3C)cc2)c(O)n1[C@@H](C)c1ccccc1OC [Example 228, 2-butyl-6-hydroxy-1-[(1S)-1-(2-methoxyphenyl)ethyl]-5-[4-(3-methylpyridin-4-yl)benzenesulfonyl]-1,4-dihydropyrimidin-4-one] | – | 0.01 to 10 |
| CCCCc1nc(=O)c(S(=O)(=O)c2ccc(-c3cncc(F)c3)cc2)c(O)n1[C@@H](C)c1ccccc1OC [Example 232, 2-butyl-5-[4-(5-fluoropyridin-3-yl)benzenesulfonyl]-6-hydroxy-1-[(1S)-1-(2-methoxyphenyl)ethyl]-1,4-dihydropyrimidin-4-one] | – | 0.01 to 10 |
| CCCCc1nc(=O)c(S(=O)(=O)c2ccc(-c3ccc(F)nc3C)cc2)c(O)n1[C@@H](C)c1ccc(OC)cc1 [Example 233, 2-butyl-5-[4-(6-fluoro-2-methylpyridin-3-yl)benzenesulfonyl]-6-hydroxy-1-[(1S)-1-(4-methoxyphenyl)ethyl]-1,4-dihydropyrimidin-4-one] | – | 0.01 to 10 |
| CCCCc1nc(O)c(S(=O)(=O)c2ccc(Br)cc2)c(=O)n1[C@H]1CCCc2ccccc21 [Example 235, 5-(4-bromobenzenesulfonyl)-2-butyl-6-hydroxy-3-[(1S)-1,2,3,4-tetrahydronaphthalen-1-yl]-3,4-dihydropyrimidin-4-one] | – | 10 to 100 |
| CCCCc1nc(=O)c(S(=O)(=O)c2ccc(-c3ccncc3C)cc2)c(O)n1[C@@H](C)c1ccc(OC)cc1 [Example 236, 2-butyl-6-hydroxy-1-[(1S)-1-(4-methoxyphenyl)ethyl]-5-[4-(3-methylpyridin-4-yl)benzenesulfonyl]-1,4-dihydropyrimidin-4-one] | – | 0.01 to 10 |
| CCCCc1nc(=O)c(S(=O)(=O)c2ccc(-c3ccc(F)nc3C)cc2)c(O)n1[C@H]1CCCc2ccccc21 [Example 237, 2-butyl-5-[4-(6-fluoro-2-methylpyridin-3-yl)benzenesulfonyl]-6-hydroxy-1-[(1S)-1,2,3,4-tetrahydronaphthalen-1-yl]-1,4-dihydropyrimidin-4-one] | – | 0.01 to 10 |

Results, then the compound that gave them:

| EC50 [1] [nM] | EC50 (cAMP accumulation) [nM] | Compound |
| --- | --- | --- |
| 0.01 to 10 | – | CCCCc1nc(=O)c(S(=O)(=O)c2ccc(-c3ccnc(F)c3C)cc2)c(O)n1[C@@H](CC)c1ccc2c(c1)OCO2 [Example 211, 1-[(1S)-1-(2H-1,3-benzodioxol-5-yl)propyl]-2-butyl-5-[4-(2-fluoro-3-methylpyridin-4-yl)benzenesulfonyl]-6-hydroxy-1,4-dihydropyrimidin-4-one] |
| 0.01 to 10 | – | CCCCc1nc(=O)c(S(=O)(=O)c2ccc(-c3ccncc3C)cc2)c(O)n1[C@@H](CC)c1cccc(F)c1 [Example 212, 2-butyl-1-[(1S)-1-(3-fluorophenyl)propyl]-6-hydroxy-5-[4-(3-methylpyridin-4-yl)benzenesulfonyl]-1,4-dihydropyrimidin-4-one] |
| 0.01 to 10 | – | CCCCc1nc(=O)c(S(=O)(=O)c2ccc(-c3cccnc3C)cc2)c(O)n1[C@@H](CC)c1cccc(F)c1 [Example 213, 2-butyl-1-[(1S)-1-(3-fluorophenyl)propyl]-6-hydroxy-5-[4-(2-methylpyridin-3-yl)benzenesulfonyl]-1,4-dihydropyrimidin-4-one] |
| – | 0.01 to 10 | CCCCc1nc(=O)c(S(=O)(=O)c2ccc(-c3cncc(F)c3)cc2)c(O)n1[C@@H](CC)c1cccc(F)c1 [Example 214, 2-butyl-1-[(1S)-1-(3-fluorophenyl)propyl]-5-[4-(5-fluoropyridin-3-yl)benzenesulfonyl]-6-hydroxy-1,4-dihydropyrimidin-4-one] |
| – | 0.01 to 10 | CCCCc1nc(=O)c(S(=O)(=O)c2ccc(-c3cccnc3C)cc2)c(O)n1[C@@H](CC)c1ccc2c(c1)OCO2 [Example 215, 1-[(1S)-1-(2H-1,3-benzodioxol-5-yl)propyl]-2-butyl-6-hydroxy-5-[4-(2-methylpyridin-3-yl)benzenesulfonyl]-1,4-dihydropyrimidin-4-one] |
| – | 0.01 to 10 | CCCCc1nc(O)c(S(=O)(=O)c2ccc(Br)cc2)c(=O)n1[C@@H](CC)c1cccc(F)c1 [Example 216, 5-(4-bromobenzenesulfonyl)-2-butyl-3-[(1S)-1-(3-fluorophenyl)propyl]-6-hydroxy-3,4-dihydropyrimidin-4-one] |
| – | 0.01 to 10 | CCCCc1nc(=O)c(S(=O)(=O)c2ccc(-c3ccnc(F)c3C)cc2)c(O)n1[C@@H](CC)c1cccc(F)c1 [Example 217, 2-butyl-5-[4-(2-fluoro-3-methylpyridin-4-yl)benzenesulfonyl]-1-[(1S)-1-(3-fluorophenyl)propyl]-6-hydroxy-1,4-dihydropyrimidin-4-one] |
| – | 0.01 to 10 | CCCCc1nc(=O)c(S(=O)(=O)c2ccc(-c3ccc(F)nc3C)cc2)c(O)n1[C@@H](CC)c1ccc2c(c1)OCO2 [Example 220, 1-[(1S)-1-(2H-1,3-benzodioxol-5-yl)propyl]-2-butyl-5-[4-(6-fluoro-2-methylpyridin-3-yl)benzenesulfonyl]-6-hydroxy-1,4-dihydropyrimidin-4-one] |
| – | 0.01 to 10 | CCCCc1nc(=O)c(S(=O)(=O)c2ccc(-c3cccnc3C)cc2)c(O)n1[C@H]1CCCc2ccccc21 [Example 221, 2-butyl-6-hydroxy-5-[4-(2-methylpyridin-3-yl)benzenesulfonyl]-1-[(1S)-1,2,3,4-tetrahydronaphthalen-1-yl]-1,4-dihydropyrimidin-4-one] |
| – | 0.01 to 10 | CCCCc1nc(=O)c(S(=O)(=O)c2ccc(-c3cncc(F)c3)cc2)c(O)n1[C@@H](CC)c1cccc(C#N)c1 [Example 225, 3-[(1S)-1-{2-butyl-5-[4-(5-fluoropyridin-3-yl)benzenesulfonyl]-6-hydroxy-4-oxo-1,4-dihydropyrimidin-1-yl}propyl]benzonitrile] |
| – | 0.01 to 10 | CCCCc1nc(=O)c(S(=O)(=O)c2ccc(-c3ccc(F)nc3C)cc2)c(O)n1[C@@H](CC)c1cccc(C#N)c1 [Example 226, 3-[(1S)-1-{2-butyl-5-[4-(6-fluoro-2-methylpyridin-3-yl)benzenesulfonyl]-6-hydroxy-4-oxo-1,4-dihydropyrimidin-1-yl}propyl]benzonitrile] |
| – | 0.01 to 10 | CCCCc1nc(=O)c(S(=O)(=O)c2ccc(-c3cccnc3C)cc2)c(O)n1[C@@H](C)c1ccc(OC)cc1 [Example 227] |
| – | 0.01 to 10 | CCCCc1nc(=O)c(S(=O)(=O)c2ccc(-c3ccncc3C)cc2)c(O)n1[C@@H](CC)c1cccc(C#N)c1 [Example 229, 3-[(1S)-1-{2-butyl-6-hydroxy-5-[4-(3-methylpyridin-4-yl)benzenesulfonyl]-4-oxo-1,4-dihydropyrimidin-1-yl}propyl]benzonitrile] |
| – | 0.01 to 10 | CCCCc1nc(=O)c(S(=O)(=O)c2ccc(-c3ccnc(F)c3C)cc2)c(O)n1[C@@H](CC)c1cccc(C#N)c1 [Example 230, 3-[(1S)-1-{2-butyl-5-[4-(2-fluoro-3-methylpyridin-4-yl)benzenesulfonyl]-6-hydroxy-4-oxo-1,4-dihydropyrimidin-1-yl}propyl]benzonitrile] |
| – | 0.01 to 10 | CCCCc1nc(=O)c(S(=O)(=O)c2ccc(-c3cccnc3C)cc2)c(O)n1[C@@H](C)c1ccccc1OC [Example 231, 2-butyl-6-hydroxy-1-[(1S)-1-(2-methoxyphenyl)ethyl]-5-[4-(2-methylpyridin-3-yl)benzenesulfonyl]-1,4-dihydropyrimidin-4-one] |
| – | 0.01 to 10 | CCCCc1nc(=O)c(S(=O)(=O)c2ccc(-c3cccnc3C)cc2)c(O)n1[C@@H](CC)c1cccc(C#N)c1 [Example 234, 3-[(1S)-1-{2-butyl-6-hydroxy-5-[4-(2-methylpyridin-3-yl)benzenesulfonyl]-4-oxo-1,4-dihydropyrimidin-1-yl}propyl]benzonitrile] |
